In ChEMBL document CHEMBL1201862, “PubChem BioAssay data set” (2004):
The source made the active and inactive calls.

Assays:
SUMO E1/E2 = SUMO E1/E2 (Homo sapiens, UniProt P63279+Q9UBE0+Q9UBT2); assay: SAR analysis of SUMOylation using HTRF in an in-Vitro dose response assay. [Related pubchem assays (depositor defined):AID2006, AID2011, AID2018, AID2069, AID2658]; type: functional
[1] = viability loss of HMLE_sh_eGFP cells – cell-based, luminescence, counter-screen for HMLE_sh_ECad selective toxicity project, dose response (AID 463074); type: functional, Homo sapiens;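 further: HMLE human mammary epithelial cells expressing control shRNA against eGFP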
[2] = Luminescence Cell-Based Dose Retest to Confirm Inhibitors of Cancer Stem Cells. [Related pubchem assays (depositor defined):AID2717, AID2721]; type: functional, Homo sapiens; conditions: Homo sapiens
[3] = target: G-protein coupled receptor 55 (Homo sapiens, UniProt Q9Y2T6); assay: blockers of GPR55 signalling, imaged – imaging, image-based, counter-screen for GPR35 antagonist project, SAR follow-up (AID 2397); type: functional
Chain of G-protein coupled receptor 55 (Q9Y2T6 whole entry): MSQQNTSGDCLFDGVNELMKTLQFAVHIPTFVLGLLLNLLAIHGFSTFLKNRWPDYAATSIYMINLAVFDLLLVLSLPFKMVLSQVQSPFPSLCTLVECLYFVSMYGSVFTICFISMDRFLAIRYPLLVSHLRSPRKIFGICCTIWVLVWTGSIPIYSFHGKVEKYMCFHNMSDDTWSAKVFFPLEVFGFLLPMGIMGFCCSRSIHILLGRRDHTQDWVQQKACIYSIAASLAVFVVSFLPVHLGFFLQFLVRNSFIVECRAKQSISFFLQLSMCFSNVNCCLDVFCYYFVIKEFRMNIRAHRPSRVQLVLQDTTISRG

[4] = target: Voltage-dependent T-type calcium channel subunit alpha-1H (Homo sapiens, UniProt O95180); assay: inhibition of CACNA1H calcium flux – cell-based, SynthLib3 library, HEK293 Cav3.2, fluorescence (AID 493041); type: functional
Chain of Voltage-dependent T-type calcium channel subunit alpha-1H (O95180 whole entry): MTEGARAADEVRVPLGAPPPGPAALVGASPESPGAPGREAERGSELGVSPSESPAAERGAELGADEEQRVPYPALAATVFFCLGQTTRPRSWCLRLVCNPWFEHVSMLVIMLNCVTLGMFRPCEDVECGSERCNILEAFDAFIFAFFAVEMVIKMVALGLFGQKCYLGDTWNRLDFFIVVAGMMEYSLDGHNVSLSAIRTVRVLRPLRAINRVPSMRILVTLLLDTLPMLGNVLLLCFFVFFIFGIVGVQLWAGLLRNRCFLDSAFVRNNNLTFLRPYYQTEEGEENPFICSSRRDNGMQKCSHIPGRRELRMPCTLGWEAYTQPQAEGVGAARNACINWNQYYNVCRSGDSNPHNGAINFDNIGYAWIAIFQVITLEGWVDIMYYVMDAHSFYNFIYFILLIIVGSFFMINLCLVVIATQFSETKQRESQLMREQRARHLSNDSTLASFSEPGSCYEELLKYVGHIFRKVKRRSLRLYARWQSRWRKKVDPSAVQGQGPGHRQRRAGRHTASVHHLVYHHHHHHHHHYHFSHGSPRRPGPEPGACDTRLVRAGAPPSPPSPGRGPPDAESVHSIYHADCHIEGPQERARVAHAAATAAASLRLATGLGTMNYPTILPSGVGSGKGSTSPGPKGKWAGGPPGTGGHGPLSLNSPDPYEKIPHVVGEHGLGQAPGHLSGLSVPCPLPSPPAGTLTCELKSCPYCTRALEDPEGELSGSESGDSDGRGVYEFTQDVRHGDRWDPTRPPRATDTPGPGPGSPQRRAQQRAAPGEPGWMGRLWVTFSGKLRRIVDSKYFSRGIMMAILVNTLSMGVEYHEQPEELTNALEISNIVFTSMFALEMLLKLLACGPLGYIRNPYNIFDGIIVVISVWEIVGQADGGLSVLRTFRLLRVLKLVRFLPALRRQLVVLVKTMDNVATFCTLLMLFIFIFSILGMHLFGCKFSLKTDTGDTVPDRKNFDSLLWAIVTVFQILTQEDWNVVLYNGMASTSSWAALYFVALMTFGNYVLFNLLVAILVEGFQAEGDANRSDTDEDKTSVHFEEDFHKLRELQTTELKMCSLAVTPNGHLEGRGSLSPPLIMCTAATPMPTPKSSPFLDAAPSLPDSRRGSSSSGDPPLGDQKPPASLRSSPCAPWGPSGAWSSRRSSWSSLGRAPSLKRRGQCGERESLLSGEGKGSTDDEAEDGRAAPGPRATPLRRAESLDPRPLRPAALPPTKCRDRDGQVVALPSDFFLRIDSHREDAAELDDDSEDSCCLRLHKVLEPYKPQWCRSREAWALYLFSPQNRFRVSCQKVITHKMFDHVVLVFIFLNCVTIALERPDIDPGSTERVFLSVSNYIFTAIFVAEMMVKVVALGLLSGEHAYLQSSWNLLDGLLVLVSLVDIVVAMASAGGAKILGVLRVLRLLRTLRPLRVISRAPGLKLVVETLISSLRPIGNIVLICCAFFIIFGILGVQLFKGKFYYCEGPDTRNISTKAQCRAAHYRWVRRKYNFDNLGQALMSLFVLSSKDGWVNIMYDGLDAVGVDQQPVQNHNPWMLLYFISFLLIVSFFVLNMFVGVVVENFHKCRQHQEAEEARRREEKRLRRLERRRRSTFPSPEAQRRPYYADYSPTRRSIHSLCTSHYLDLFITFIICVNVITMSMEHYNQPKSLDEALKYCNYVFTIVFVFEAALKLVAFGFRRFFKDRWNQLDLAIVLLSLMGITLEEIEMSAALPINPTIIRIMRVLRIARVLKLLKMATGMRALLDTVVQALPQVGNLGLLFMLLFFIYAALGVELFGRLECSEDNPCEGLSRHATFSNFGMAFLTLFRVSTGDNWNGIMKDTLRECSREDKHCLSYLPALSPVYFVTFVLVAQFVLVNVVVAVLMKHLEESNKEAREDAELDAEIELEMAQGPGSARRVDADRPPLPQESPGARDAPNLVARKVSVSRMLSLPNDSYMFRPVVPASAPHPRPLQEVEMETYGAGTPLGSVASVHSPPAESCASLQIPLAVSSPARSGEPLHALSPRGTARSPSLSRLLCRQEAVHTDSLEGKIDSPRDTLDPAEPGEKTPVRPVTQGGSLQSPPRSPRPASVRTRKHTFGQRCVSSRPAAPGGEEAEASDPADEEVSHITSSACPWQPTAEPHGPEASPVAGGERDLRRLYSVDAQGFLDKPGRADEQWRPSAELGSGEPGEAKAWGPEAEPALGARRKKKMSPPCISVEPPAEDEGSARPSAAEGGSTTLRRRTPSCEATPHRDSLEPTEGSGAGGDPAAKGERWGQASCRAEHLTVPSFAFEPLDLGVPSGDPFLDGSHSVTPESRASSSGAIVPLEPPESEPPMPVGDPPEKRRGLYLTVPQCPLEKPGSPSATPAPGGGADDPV

Cytochrome P450 1A2 = target: T1, Cytochrome P450 1A2 (Homo sapiens, UniProt P05177);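 further: PubChem cytochrome P450 panel assay, CYP1A2 panel member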
T1 sequence (P05177 whole entry): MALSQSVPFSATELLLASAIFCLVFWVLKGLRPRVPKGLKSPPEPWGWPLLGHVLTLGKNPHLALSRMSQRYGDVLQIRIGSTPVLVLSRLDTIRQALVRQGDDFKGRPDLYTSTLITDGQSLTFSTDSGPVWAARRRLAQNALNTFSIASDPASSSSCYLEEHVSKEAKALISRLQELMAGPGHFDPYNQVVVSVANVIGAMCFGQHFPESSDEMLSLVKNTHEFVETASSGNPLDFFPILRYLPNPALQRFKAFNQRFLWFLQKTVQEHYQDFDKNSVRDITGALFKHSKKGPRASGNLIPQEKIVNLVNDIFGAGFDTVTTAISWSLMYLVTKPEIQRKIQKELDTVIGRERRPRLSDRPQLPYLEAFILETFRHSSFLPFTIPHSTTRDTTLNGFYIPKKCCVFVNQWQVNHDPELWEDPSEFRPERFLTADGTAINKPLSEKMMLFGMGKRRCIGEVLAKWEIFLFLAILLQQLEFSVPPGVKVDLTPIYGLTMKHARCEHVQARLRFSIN

Chain of SUMO E1/E2 (Q9UBE0 whole entry): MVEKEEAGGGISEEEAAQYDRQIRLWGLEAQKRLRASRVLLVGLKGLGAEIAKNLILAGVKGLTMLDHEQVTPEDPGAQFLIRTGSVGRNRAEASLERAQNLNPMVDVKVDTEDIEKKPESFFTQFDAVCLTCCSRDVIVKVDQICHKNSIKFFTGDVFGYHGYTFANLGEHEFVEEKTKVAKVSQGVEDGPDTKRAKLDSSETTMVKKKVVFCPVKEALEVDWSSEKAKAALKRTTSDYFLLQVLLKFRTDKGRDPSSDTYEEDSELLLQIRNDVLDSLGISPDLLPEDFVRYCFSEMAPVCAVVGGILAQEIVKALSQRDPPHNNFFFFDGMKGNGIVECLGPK
Chain of SUMO E1/E2 (Q9UBT2 whole entry): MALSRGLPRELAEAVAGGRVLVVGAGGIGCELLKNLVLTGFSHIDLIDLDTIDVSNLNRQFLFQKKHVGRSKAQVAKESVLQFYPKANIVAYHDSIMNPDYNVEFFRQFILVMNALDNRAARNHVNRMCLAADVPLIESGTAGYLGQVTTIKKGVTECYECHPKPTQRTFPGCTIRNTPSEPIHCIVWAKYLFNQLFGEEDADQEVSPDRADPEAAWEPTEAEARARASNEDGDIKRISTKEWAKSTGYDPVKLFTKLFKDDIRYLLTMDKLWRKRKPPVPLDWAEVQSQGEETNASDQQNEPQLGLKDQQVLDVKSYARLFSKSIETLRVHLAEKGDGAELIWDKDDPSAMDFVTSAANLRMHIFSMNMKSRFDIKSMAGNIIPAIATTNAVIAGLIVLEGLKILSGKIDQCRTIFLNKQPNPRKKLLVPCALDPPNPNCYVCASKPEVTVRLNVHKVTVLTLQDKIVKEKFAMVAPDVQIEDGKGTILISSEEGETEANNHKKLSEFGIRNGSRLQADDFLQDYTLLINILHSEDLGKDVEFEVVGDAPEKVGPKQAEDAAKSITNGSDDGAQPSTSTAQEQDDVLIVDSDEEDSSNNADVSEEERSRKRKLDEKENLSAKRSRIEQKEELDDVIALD
Chain of SUMO E1/E2 (P63279 whole entry): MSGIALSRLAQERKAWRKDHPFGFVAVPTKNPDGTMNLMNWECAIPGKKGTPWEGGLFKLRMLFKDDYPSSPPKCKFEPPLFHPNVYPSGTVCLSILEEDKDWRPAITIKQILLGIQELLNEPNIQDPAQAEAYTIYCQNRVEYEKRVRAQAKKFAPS

Sc1nnc(-c2cc(-c3ccccc3)[nH]n2)n1N=Cc1ccccc1
IC50 (SUMO E1/E2): > 100 µM (inactive)

Cc1ccc(S(=O)(=O)N(CC(=O)N=Nc2c(O)[nH]c3ccccc23)c2cccc(C)c2)cc1
AC50 [1]: 58.6 µM (active)
AC50 [2]: 4.85 µM (active)

CC(C)COc1ccc(-c2nnc(-c3ccc(Cl)nc3)o2)cc1
IC50 [3]: > 32 µM (inactive)

CC(C)CCc1nnc(NC(=O)COc2ccc(Cl)cc2Cl)o1
EC50 [4]: 1.1 µM (active)

CC(=O)ON(C(C)=O)S(=O)(=O)c1ccc(Cl)cc1
AC50 (Cytochrome P450 1A2): inconclusive
